# According to article PMC7539557 (ACS infectious diseases, 2020):
# Values joined by “and” are separate entries in the source; they are usually repeats but may differ in a detail not shown here. Identical values can stand only once. “Also recorded” adds a separate entry of the source. Like-named read-outs stand apart in the source and are kept apart here.
# Tests used:
# MHV-A59 [1] = assay type: cell-based, Murine hepatitis virus; conditions: for IC50: DFMO pretreatment 4 days, CPX, DEF, GC7 24h
# MHV [2] = test: Direct incubation of MHV with compound, then titering; parameters: species or system Murine hepatitis virus; conditions: 10 μM for 24h, then titered
# [3] = tested on: SARS-CoV-2 pseudoparticles; assay type: cell-based; conditions: DFMO-treated Vero-E6 cells
# cellular polyamines = test: Thin-layer chromatography of cell-associated polyamines; assay type: cell-based
# MHV-A59 [4] = test: Plaque size measurement with DFMO applied at time of infection; assay type: cell-based, Murine hepatitis virus
# HCoV-NL63 = HCoV-NL63 qPCR-based attachment assay on Vero-E6 cells; assay type: cell-based; conditions: DFMO-treated Vero-E6 cells
# MHV [5] = test: MHV attachment assays; assay type: cell-based, Murine hepatitis virus
# MHV-A59 [6] = assay type: cell-based, Murine hepatitis virus
# MERS-CoV = conditions: in vitro, dose of 500 μM; cited from earlier work
# SARS-CoV-2 = assay type: cell-based; conditions: 5 mM DFMO, Vero-E6, MOI 0.1, 24 hpi
smiles,measurement,setting,value
"Cc1c(O)c(=O)ccn1C [DEF, deferiprone]",MHV replication,MHV-A59 [1],significantly reduced MHV replication in a dose-dependent manner
same,cytotoxicity,BHK-R cells,cytotoxicity was minimal
NCCCCCCCN=C(N)N [GC7],MHV replication,MHV-A59 [1],significantly reduced MHV replication in a dose-dependent manner
same,IC50,MHV-A59 [1],7.4 µM
same,cytotoxicity,BHK-R cells,cytotoxicity was minimal
NCCCCN [putrescine],infectivity of MHV after direct incubation,MHV [2],titers were unchanged
same,effect of exogenous polyamine on MHV titers,MHV-A59 [1],modestly reduced viral titers
same,rescue of MHV replication in DFMO-treated cells,MHV-A59 [1],rescued virus replication to untreated levels
NCCCCNCCCN [spermidine],infectivity of MHV after direct incubation,MHV [2],titers were unchanged
same,effect of exogenous polyamine on MHV titers,MHV-A59 [1],modestly reduced viral titers; also recorded: does not inhibit or restrict virus replication
same,rescue of MHV replication in DFMO-treated cells,MHV-A59 [1],rescued virus replication to untreated levels
NCCCNCCCCNCCCN [spermine],infectivity of MHV after direct incubation,MHV [2],titers were unchanged
same,effect of exogenous polyamine on MHV titers,MHV-A59 [1],modestly reduced viral titers; also recorded: reduces virus replication
same,rescue of MHV replication in DFMO-treated cells,MHV-A59 [1],rescued virus replication to untreated levels
same,cytotoxicity,BHK-R cells,significant cytotoxicity
"NCCCC(N)(C(=O)O)C(F)F (stereo not shown) [DFMO, difluoromethylornithine]",infectivity of MHV after direct incubation,MHV [2],titers were unchanged
same,cellular attachment of SARS-CoV-2 pseudoparticles,[3],reduction in cellular attachment of SARS-CoV-2 pseudoparticles in a dose-dependent manner
same,polyamine levels by TLC,cellular polyamines; BHK-R cells,depleted polyamines
same,polyamine levels by TLC,"cellular polyamines; HeLa-R cells, DENSpm at 10 μM",reduced polyamines
same,polyamine levels by TLC,"cellular polyamines; Vero-E6 cells, 750 μM to 5 mM DFMO",successfully depleted polyamines
same,plaque size,"MHV-A59 [4]; BHK-R cells, DFMO in overlay media at time of infection",no changes in plaque size
same,plaque area,"MHV-A59 [4]; HeLa-R cells, DFMO at time of infection","small, though statistically insignificant change"
same,HCoV-NL63 attachment,HCoV-NL63,attachment was sensitive to DFMO treatment
same,attachment and plaque formation,MHV [5],significantly inhibited
same,bound viral genomes (qRT-PCR),MHV [5],significantly reduced
same,IC50,MHV-A59 [6],~7 µM and 7 µM
same,MHV genome levels in supernatant (qPCR),MHV-A59 [1],reduced genome levels
same,MHV production after repeated versus single dosing,MHV-A59 [1],repeated dosing is as effective as a single drug treatment
same,MHV titers over several rounds of replication,MHV-A59 [1],reduced viral titers compared to no treatment group up to 72 h
same,antiviral effect after drug removal,MHV-A59 [1],completely reversed
same,specific infectivity (genomes per PFU),MHV-A59 [1],increased the ratio of genomes to titer
same,IC50,MHV-A59 [1],380 µM
same,toxicity,HeLa-R cells,not toxic to these cells
same,sensitivity of MERS-CoV,MERS-CoV,sensitive
same,reduction of SARS-CoV-2 genomes,SARS-CoV-2,greater than 50 fold
"Cc1cc(C2CCCCC2)n(O)c(=O)c1 [CPX, ciclopirox]",MHV replication,MHV-A59 [1],significantly reduced MHV replication in a dose-dependent manner
same,cytotoxicity,BHK-R cells,cytotoxicity was minimal
